According to ChEMBL document CHEMBL1148239, “Studies on intestinal permeability of cirrhotic patients by analysis lactulose and mannitol in urine with HPLC/RID/MS” (Bioorg Med Chem Lett, 2004):
Values joined by “and” are separate entries in the source; they are usually repeats but may differ in a detail not shown here. Equal values may be shown once.

Assays:
[1] = Percent recovery of 100 ug/mL compound after administration in cirrhotic patients; assay type: ADME; conditions: human, in vivo
[2] = Percent of compound in cirrhotic patients of spontaneous ascitic fluid infection after dosing with normal antibiotics and lactose; assay type: ADME; conditions: human, in vivo
[3] = Percent recovery of 500 ug/mL compound after administration in cirrhotic patients; assay type: ADME; conditions: human, in vivo
[4] = Percent of compound in cirrhotic patients of spontaneous ascitic fluid infection before dosing with normal antibiotics and lactose; assay type: ADME; conditions: human, in vivo
[5] = Percent of compound in cirrhotic patients of spontaneous ascitic fluid infection before dosing with normal antibiotics; assay type: ADME; conditions: human, in vivo
[6] = organism: Homo sapiens; test: Ratio of lactulose and mannitol in cirrhotic patients of spontaneous ascitic fluid infection (Group A and B); assay type: ADME, organism-based; conditions: in vivo
[7] = tested on: Homo sapiens; test: Ratio of percent compound before and after dosing in cirrhotic patients of spontaneous ascitic fluid infection; assay type: ADME, organism-based; conditions: in vivo
[8] = Percent of compound in healthy individuals (Group D); assay type: ADME; conditions: human
[9] = Percent of compound in cirrhotic patients of sterile ascitic fluid (Group C); assay type: ADME; conditions: human
[10] = organism: Homo sapiens; test: Ratio of lactulose and mannitol in cirrhotic patients of sterile ascitic fluid (Group C); assay type: ADME, organism-based; conditions: in vivo
[11] = Percent of compound in cirrhotic patients of spontaneous ascitic fluid infection (Group A and B); assay type: ADME; conditions: human
[12] = tested on: Homo sapiens; test: Ratio of percent compound before dosing in cirrhotic patients of spontaneous ascitic fluid infection; assay type: ADME, organism-based; conditions: in vivo
[13] = organism: Homo sapiens; test: Ratio of lactulose and mannitol in healthy individuals (Group D); assay type: ADME, organism-based; conditions: in vivo
[14] = Percent of compound in cirrhotic patients of spontaneous ascitic fluid infection after dosing with normal antibiotics; assay type: ADME; conditions: human, in vivo
[15] = Percent recovery of 10 ug/mL compound after administration in cirrhotic patients; assay type: ADME; conditions: human, in vivo
[16] = tested on: Homo sapiens; test: Ratio of percent compound after dosing in cirrhotic patients of spontaneous ascitic fluid infection; assay type: ADME, organism-based; conditions: in vivo

| SMILES | Recovery [1] [%] | Activity [2] [%] | Recovery [3] [%] | Activity [4] [%] | Activity [5] [%] | Ratio [6] | Ratio [7] | Activity [8] [%] | Activity [9] [%] | Ratio [10] | Activity [11] [%] | Ratio [12] | Ratio [13] | Activity [14] [%] | Recovery [15] [%] | Ratio [16] |
| --- | --- | --- | --- | --- | --- | --- | --- | --- | --- | --- | --- | --- | --- | --- | --- | --- |
| OC[C@H]1O[C@@H](O[C@@H]2[C@@H](CO)O[C@](O)(CO)[C@H]2O)[C@H](O)[C@@H](O)[C@H]1O [LACTULOSE] | 93.7 | 0.0044 | 97 | 0.0071 | 0.007 | 0.1003 | 0.1009 | 0.00177 | 0.00476 | 0.0715 | 0.00719 | 0.1009 | 0.0209 | 0.006 | 93.1 | 0.0814 and 0.0572 |
| OC[C@@H](O)[C@@H](O)[C@H](O)[C@H](O)CO [MANNITOL] | 95.2 | 0.0732 | 97.1 | 0.0733 | 0.0735 | 0.1003 | 0.0985 | 0.0838 | 0.0691 | 0.0715 | 0.0741 | 0.1009 | 0.0209 | 0.0782 | 93.3 | 0.0814 and 0.0572 |
